We go through five molecules from article PMC3633906, “A High Throughput Screen for RGS Proteins Using Steady State Monitoring of Free Phosphate Formation” (PLoS ONE, 2013).

In data set [1] the target is T1, RGS4(WT) (Rattus norvegicus, UniProt P49799).
T1 construct: fused to the N-terminus of an RGS4 construct containing amino acids 51–205; 10× His tag (N, cleaved yes); made in house; host or cells: E. coli BL21-DE3
T1 sequence (P49799 51-205): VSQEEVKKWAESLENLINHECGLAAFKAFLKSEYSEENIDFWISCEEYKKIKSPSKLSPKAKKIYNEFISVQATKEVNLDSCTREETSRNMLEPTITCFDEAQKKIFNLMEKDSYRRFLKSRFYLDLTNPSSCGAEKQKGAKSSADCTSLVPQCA
Nature of the data set: Malachite green steady-state GAP assay, RGS4(WT). Type of data set: biochemical. The conditions noted are these: for Mean absorbance at 642 nm, positive control: 10 µM final compound. Here is the method:
Stock solutions of each of the 3 components of the developing solution were prepared, which are stable for long-term storage. Malachite solution was prepared by first diluting concentrated sulfuric acid 1∶5 in distilled water. Once the solution cooled to 25°C, malachite solution was prepared by dissolving 0.44 g of malachite green oxalate (Alfa Aesar; Ward Hill, MA) in 360 mL diluted acid and stored at 25°C. Molybdate solution, containing 7.5% ammonium molybdate tetrahydrate (Alfa Aesar; Ward Hill, MA), was prepared in distilled water and stored at 4°C. Tween-20 solution, used to maintain solubility of the phosphate-molybdate-malachite complex, was prepared as 11% (v/v) Tween-20 in distilled water. On the day of use, 2.5 mL molybdate solution and 0.2 mL Tween-20 solution were added to 10 mL of malachite solution and mixed quickly to avoid precipitation of malachite. The final ratio of the Developing Solution (DS) was 50∶12.5∶1 (malachite:molybdate:Tween-20). The peak absorbance was determined by a 2 nm step wavelength scan, using 10 µM Na3PO4 at pH 7.5 as the negative control.
The malachite green assay involves 5 components, with a 1 min spin at 100×g between each addition. For time-course experiments, the first component was 10 µL Malachite Green Assay Buffer (MGB; 50 mM HEPES at pH 7.5, 100 mM NaCl, 5 mM EDTA, 10 mM MgCl2, 0.01% lubrol) into a clear 384-well plate (ThermoFisher Scientific; Waltham, MA) using a MultiDrop dispenser (PerkinElmer; Waltham, MA). The second component dispensed was 10 µL of a 4× stock of RGS4, typically 200 nM to 1.6 µM with the target final concentration of 50 nM to 400 nM, diluted in MGB. After a 30 min incubation, 10 µL of the third component, 4× stock of Gαi diluted in MGB, was dispensed (typically between 4 µM and 80 µM with a desired final concentration 1 µM to 20 µM). After a minimum of 5 min incubation, 10 µL of the fourth component, 4× GTP diluted in MGB, was added at 10 minute intervals from 1–110 minutes. The 0 min time point was excluded due to amount of time required to proceed from GTP addition to quenching with DS. 4× GTP concentrations varied between 0.2 mM and 2.4 mM, with a target final concentration of 50 µM to 600 µM. To terminate the reaction, 10 µL of DS was added to each well using a Microlab Star liquid handling robot (Hamilton Robotics; Reno, NV), to achieve a final ratio 4∶1 (sample:developing solution). Following the spin, the plate was incubated for 25 min before being read at 642 nm for absorbance using an EnVision plate reader (PerkinElmer; Waltham, MA). RGS8 was evaluated similarly to as described for RGS4, with 4× stock concentrations from 20 nM and 800 nM. For each time-course, corresponding GTP only wells were included to account for spontaneous hydrolysis of GTP over time.
(§1) Malachite green compound activity and Z-factor analysis conducted in 384-well plates utilized optimized parameters as discerned from the time-course experiments. 10 µL of 4× compound or MGB was dispensed into appropriate wells. For single point assay, 160 µM compound was used, and for dose-response assays a series of ½ log dilutions from 100 µM final to 316pM final was used. 10 µL of the optimized 4× RGS4 concentration, 0.8 µM in MGB, was dispensed into all wells. After a spin down at 100×g for 1 min, the assay plate was incubated at 25°C for 30 min. 10 µL of the optimized Gαi concentration, 20 µM in MGB, was dispensed to each well and incubated at 25°C for 5 min. 10 µL of the optimized 4× GTP, 600 µM in MGB, was then added to the samples. After spinning the samples down at 100×g for 1 min, the samples were incubated at 25°C for 75 min. The samples were then stamped with 10 µL of DS and incubated for 25 min before reading absorbance at 642 nm.
1536-well Z-factor analysis and compound library screen were accomplished largely as described for 384-well plates. Initial screen and Z-factor determination was performed in a final concentration of 5.5% dimethylsulfoxide. […]

In data set [2] the target is RGS4(Δ7) mutant (Rattus norvegicus, UniProt P49799, C132A/C148A/C183A/C197A/C204A/C71A/C95A). Put plainly: Malachite green steady-state GAP assay, cysteine-null RGS4(Δ7) counter screen. Type of data set: biochemical.
Text: Rat RGS4, sharing 97% sequence identity with human RGS4, and the cysteine to alanine mutant were expressed as fusion proteins of maltose binding protein (MBP), a 10× His tag, and a TEV protease recognition site fused to the N-terminus of an RGS4 construct containing amino acids 51–205, in the vector pMALC2H10T in BL21-DE3 E. coli (Stratagene; Santa Clara, CA). The single cysteine-null Δ51-RGS4 construct was generated by site-directed mutagenesis as described previously. Expression and purification were performed as described previously. Purified protein was incubated with TEV protease at a molar ratio of 10∶1(fusion protein:TEV protease) overnight at 4°C. The cleaved Δ51-RGS4 was then isolated by purification over an ANX column (GE Healthcare; Fairfield, CT) in 50 mM HEPES at pH 6.8 and 50 mM NaCl. The flow through, containing the ∼99% Δ51-RGS4 as determined by SDS-PAGE gel, was then collected and concentrated using a YM-10 centrifugal concentrator (Millipore; Billerica, MA). The concentration of Δ51-RGS4 was calculated based on the absorbance at 280 nm utilizing a Take-3 plate (Biotek; Winnoski, VT) in a Synergy 2 plate reader (Biotek; Winnoski, VT).
as §1
Data was analyzed using Prism analysis software (Graphpad Software; La Jolla, CA). Initial malachite green assay optimization was accomplished by comparing the fit of both straight line and hyperbolic functions. The fit that mostly closely resembled the data was used to represent the data. IC50 values for each compound were determined by fitting the data to a sigmoidal curve, which was used to calculate the IC50 value.

On the set-up of data set [3]: method as in PMID 20700722, PMID 21088503. Conditions: rodent models; cited from earlier work.
[4] abbreviates: malachite green assay, RGS4(Δ7) mutant, concentration-response, read-out: IC50 against RGS4(Δ7).

As usually defined, the IC50 is the concentration that inhibits the measured activity by half.

Where a name gives a salt, the structure may show the parent alone. Read-outs that look alike come from different tables or passages of the source.

Chain of RGS4(Δ7) mutant (P49799 51-205 C71A/C95A/C132A/C148A/C183A/C197A/C204A limits assumed): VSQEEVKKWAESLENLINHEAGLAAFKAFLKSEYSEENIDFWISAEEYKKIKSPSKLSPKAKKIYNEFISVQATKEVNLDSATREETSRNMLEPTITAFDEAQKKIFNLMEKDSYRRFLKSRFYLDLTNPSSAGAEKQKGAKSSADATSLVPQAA

For `Cc1ccc(-n2sc(=O)n(Cc3ccc(F)cc3)c2=O)cc1` [CCG-50014, reference compound], the “Mean absorbance at 642 nm, positive control” value in data set [1] (384-well plate, 192 wells, negative control (buffer) mean 1.74) is recorded as 0.92; in data set [1] (1536-well plate, 5.5% DMSO, 128 wells, negative control (buffer) mean 0.67) it was 0.30.

Take `C[n+]1cc2c3c(ccc2c2ccc4cc5c(cc4c21)OCO5)OCO3` [UI-5, sanguinarium sulfate]: the IC50 in data set [2] (setting [4]) was found to be 454 µM; in data set [1] (malachite green assay, 200 nM RGS4, concentration-response, read-out: IC50 against RGS4(WT)), 126 µM.

For the molecule `CC1=C(O)C(=O)C=C2C1=CC=C1[C@@]2(C)CC[C@@]2(C)[C@@H]3C[C@](C)(C(=O)O)CC[C@]3(C)CC[C@]12C` [UI-1590, celastrol], the concentration for half-maximal inhibition (IC50) worked out at 88 µM in data set [2] and 0.724 µM in data set [1]. The Toxicity in vivo entry in data set [3] is on record as “minor toxicity”.

`CC(C)=CCC[C@]1(C)C=Cc2c(O)c3c(c(CC=C(C)C)c2O1)O[C@]12C(=C[C@@H]4C[C@H]1C(C)(C)O[C@@]2(C/C=C(/C)C(=O)O)C4=O)C3=O` [UI-1907, gambogic acid]: the IC50 in data set [2] came out at 51 µM; in data set [1] it was 16 µM. In data set [2] (malachite green assay), the “Inhibition of RGS4(Δ7) (in words)” value is reported as “weak inhibitors”. For the same molecule, the “Inhibition of RGS4 (in words)” value in data set [1] (malachite green assay) is on record as “weak inhibitors”.

Consider `CC(=O)Oc1c2c(c(CC=C(C)C)c3c1C(=O)C1=C[C@@H]4CC5C(C)(C)OC(C/C=C(\C)C(=O)O)(C4=O)[C@@]15O3)OC(C)(CCC=C(C)C)C=C2` (some centres unmarked) [UI-2034, acetyl-isogambogic acid], for which the “Inhibition of RGS4(Δ7) (in words)” value in data set [2] (malachite green assay) is reported as “weak inhibitors”. Further, the IC50 in data set [2] (setting [4]) was 181 µM. Also, the “Inhibition of RGS4 (in words)” value in data set [1] (malachite green assay) is “weak inhibitors”.
